Assay results published in article PMC4191062, “Development of αGlcN(1↔1)αMan-Based Lipid A Mimetics as a Novel Class of Potent Toll-like Receptor 4 Agonists” (Journal of Medicinal Chemistry, 2014).
Like-named read-outs stand apart in the source and are kept apart here.

Target: hTLR4/hMD-2/CD14-transfected HEK293 cells (Homo sapiens, UniProt O00206+Q9Y6Y9)
Assay: hTLR4/MD-2/CD14-transfected HEK293 (HEK-Blue) activation assay, NF-κB-dependent SEAP reporter
Type: cell-based
Conditions: for concentration at which TLR4 saturation plateau was reached: NF-κB/SEAP dose response
Text: The propensity of the α,α-GM-LAMs 1–3 to stimulate TLR4-mediated immune signaling was first assessed in the hTLR4/hMD-2/CD14 transfected human embryonic kidney (HEK) 293 cells (HEK-Blue). Since we were particularly interested in the molecular recognition mechanisms implicated in the binding of LPS by the MD-2·TLR4 complex wherein the Lipid A/Re-LPS portion of LPS is exclusively involved, we evaluated the activities of α,α-GM-LAMs 1–3 compared to E. coliRe-LPS (Figure 1A). It has been previously shown that the minimum structural requirement for the expression of the highest cytokine-inducing potency resides in Re-LPS, which entails two 3-deoxy-D-manno-oct-2-ulosonic acid (Kdo) residues in addition to Lipid A (Supporting Information, SI-Figure 1A).[54],[55] Moreover, the Re-LPS has a defined molecular weight (MW) similar to the MW range for Lipid A mimetics (1.8–2.2 kDa), in contrast to wild-type LPS having variable MW (10–15 kDa), so that the direct comparison of a dose-dependent response between compounds 1–3 and Re-LPS is more appropriate. The TLR4-stimulating activity of Lipid A mimetics 1–3 was examined over a wide concentration range by monitoring of the activation of the NF-κB regulated signal transduction pathway via measuring the induction of secreted embryonic alkaline phosphatase (SEAP) and compared to the responses elicited by E. coliRe-LPS and SM-MPLA.
Growth conditions and activation assay were set as recommended by InvivoGen. The cells were stimulated with the solutions of compounds 1–3 or LPS/Re-LPS in DMEM supplemented by 10% FCS at the indicated concentrations. […] The compounds were added in a total volume of 20 μL to 25000 HEK-Blue hTLR4 cells in 180 μL plates and were incubated for 20–24 h at 37 °C and 5% CO2. SEAP levels were determined by incubation of 20 μL of challenged cell supernatants with 180 μL of detection reagent (QUANTI-Blue), and the color development was measured at 650 nm using a spectrophotometer (SpectraMAX 190). Data were combined from n = 3 independent experiments; error bars indicate standard error of the mean.
Supplementary SI-Figure 1
E. coli Re-LPS E. coli O111:B4
SI-Figure 1. (A) Dose-dependent activation of TLR4 signaling in hTLR4/hMD-2/hCD14 transfected HEK293 cells (HEK-Blue) by E. coli Re-LPS compared to E. coli O111:B4 LPS. [nM] concentrations were calculated from [ng/ml] concentrations based on the following molecular weights (MW): MWE. coli Re-LPS 2339 Da, MWE. coli O111:B4 LPS 10000 Da. (B) Dose-dependent activation of TLR4 signaling in hTLR4/hMD-2/hCD14 transfected HEK293 cells (HEK-Blue) by Lipid A mimetics 1- 3 compared to E. coli Re-LPS and S. minnesota MPLA. Non-linear curve fit (variable slope) was calculated using GraphPad Prism and is shown for the mean curves. Dotted lines indicate corresponding Ec50 values. Statistical analysis was performed on non-linear curve fits on individual datasets using an un-paired two-tailed t-test (*** indicates a p value < 0.001, ns indicates non-significant change). Top, bottom, hill slope and Ec50 values of non-linear curve fit on individual datasets are shown. […]

[1] = SEAP induction, 20–24 h, mean curve, nM calculated from ng/ml via MW, read-out: EC50 NF-κB activation
[2] = SEAP induction, mean curve, read-out: Ec50 (ng/ml) (converted)
[3] = dataset n1, read-out: Ec50 (ng/ml), non-linear curve fit on individual dataset (converted)
[4] = dataset n2, read-out: Ec50 (ng/ml), non-linear curve fit on individual dataset (converted)
[5] = dataset n3, read-out: Ec50 (ng/ml), non-linear curve fit on individual dataset (converted)

hTLR4/hMD-2/CD14-transfected HEK293 cells, sequence (O00206 24-839): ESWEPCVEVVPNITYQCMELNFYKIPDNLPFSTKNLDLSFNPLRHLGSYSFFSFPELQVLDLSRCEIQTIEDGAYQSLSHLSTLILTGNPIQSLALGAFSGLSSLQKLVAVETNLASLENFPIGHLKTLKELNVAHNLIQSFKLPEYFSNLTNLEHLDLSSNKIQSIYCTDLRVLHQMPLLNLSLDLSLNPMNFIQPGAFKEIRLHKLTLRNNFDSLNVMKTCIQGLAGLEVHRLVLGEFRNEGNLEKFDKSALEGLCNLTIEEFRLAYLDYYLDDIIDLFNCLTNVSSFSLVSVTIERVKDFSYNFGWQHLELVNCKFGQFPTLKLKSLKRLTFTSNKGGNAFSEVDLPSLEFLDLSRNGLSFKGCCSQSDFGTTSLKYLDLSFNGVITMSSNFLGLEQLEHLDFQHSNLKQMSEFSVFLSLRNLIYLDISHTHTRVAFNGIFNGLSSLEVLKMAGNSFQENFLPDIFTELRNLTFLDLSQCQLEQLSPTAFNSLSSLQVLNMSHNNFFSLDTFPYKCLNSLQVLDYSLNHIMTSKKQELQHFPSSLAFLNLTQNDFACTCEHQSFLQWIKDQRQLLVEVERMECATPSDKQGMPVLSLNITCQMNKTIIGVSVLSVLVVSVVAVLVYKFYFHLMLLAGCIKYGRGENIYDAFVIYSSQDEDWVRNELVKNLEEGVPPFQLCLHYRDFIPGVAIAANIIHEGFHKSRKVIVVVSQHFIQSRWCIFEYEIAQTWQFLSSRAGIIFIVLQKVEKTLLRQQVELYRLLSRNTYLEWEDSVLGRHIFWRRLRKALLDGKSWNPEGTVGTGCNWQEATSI
hTLR4/hMD-2/CD14-transfected HEK293 cells, sequence (Q9Y6Y9 17-160 limits assumed): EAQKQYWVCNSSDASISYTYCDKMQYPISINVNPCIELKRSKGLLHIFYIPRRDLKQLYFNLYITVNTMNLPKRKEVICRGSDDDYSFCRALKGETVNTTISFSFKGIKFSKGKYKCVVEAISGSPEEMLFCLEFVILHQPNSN

| SMILES | concentration at which TLR4 saturation plateau was reached [ng/mL] | EC50 [1] [nM] | EC50 [2] [nM] | Bottom of non-linear curve fit (dataset n1) | HillSlope of non-linear curve fit (dataset n1) | Top of non-linear curve fit (dataset n1) | EC50 [3] [nM] | Bottom of non-linear curve fit (dataset n2) | HillSlope of non-linear curve fit (dataset n2) | Top of non-linear curve fit (dataset n2) | EC50 [4] [nM] | Bottom of non-linear curve fit (dataset n3) | HillSlope of non-linear curve fit (dataset n3) | Top of non-linear curve fit (dataset n3) | EC50 [5] [nM] | fold increase of TLR-4 stimulating activity on shortening lipid side chain at Man C-4 by 2×CH2 (2 compared with 1) [fold] | activation profile compared to SM-MPLA (at concentrations above 10 ng/mL) |
| --- | --- | --- | --- | --- | --- | --- | --- | --- | --- | --- | --- | --- | --- | --- | --- | --- | --- |
| CCCCCCCCCCCCCC(=O)O[C@H](CCCCCCCCCCC)CC(=O)O[C@@H]1[C@@H](NC(=O)C[C@@H](CCCCCCCCCCC)OC(=O)CCCCCCCCCCC)[C@@H](O[C@H]2O[C@H](COP(=O)(O)O)[C@@H](OC(=O)C[C@@H](CCCCCCCCCCC)OC(=O)CCCCCCCCCCC)[C@H](O)[C@@H]2OC)O[C@H](CO)[C@H]1OP(=O)(O)O [Compound 1, 4-O-[(R)-3-(Dodecanoyloxy)tetradecanoyl]-2-O-methyl-6-O-phosphoryl-α-D-mannopyranosyl-(1↔1)-2-deoxy-2-[(R)-3-(dodecanoyloxy)tetradecanoylamino]-4-O-phosphoryl-3-O-[(R)-3-(tetradecanoyloxy)tetradecanoyl]-α-D-glucopyranoside] | 5 | 0.4 | 0.424 | 0.212 | 1.282 | 1.369 | 0.505 | 0.225 | 1.341 | 1.312 | 0.352 | 0.215 | 1.257 | 1.348 | 0.421 |  |  |
| CCCCCCCCCCCCCC(=O)O[C@H](CCCCCCCCCCC)CC(=O)O[C@@H]1[C@@H](NC(=O)C[C@@H](CCCCCCCCCCC)OC(=O)CCCCCCCCCCC)[C@@H](O[C@H]2O[C@H](COP(=O)(O)O)[C@@H](OC(=O)C[C@@H](CCCCCCCCCCC)OC(=O)CCCCCCCCC)[C@H](O)[C@@H]2OC)O[C@H](CO)[C@H]1OP(=O)(O)O [Compound 2, 4-O-[(R)-3-(Decanoyloxy)tetradecanoyl]-2-O-methyl-6-O-phosphoryl-α-mannopyranosyl-(1↔1)-2-deoxy-2-[(R)-3-(dodecanoyloxy)tetradecanoylamino]-4-O-phosphoryl-3-O-[(R)-3-(tetradecanoyloxy)tetradecanoyl]-α-D-glucopyranoside] | 1 | 0.08 | 0.0804 | 0.216 | 1.193 | 1.330 | 0.0884 | 0.232 | 1.250 | 1.319 | 0.0827 | 0.236 | 1.246 | 1.320 | 0.0758 | 5 |  |
| CCCCCCCCCCCCCC(=O)O[C@H](CCCCCCCCCCC)CC(=O)O[C@@H]1[C@@H](NC(=O)C[C@@H](CCCCCCCCCCC)OC(=O)CCCCCCCCCCC)[C@@H](O[C@H]2O[C@H](CO)[C@@H](OC(=O)C[C@@H](CCCCCCCCCCC)OC(=O)CCCCCCCCCCC)[C@H](O)[C@@H]2OC)O[C@H](CO)[C@H]1OP(=O)(O)O [Compound 3, 4-O-[(R)-3-(Dodecanoyloxy)tetradecanoyl]-2-O-methyl-α-D-mannopyranosyl-(1↔1)-2-deoxy-2-[(R)-3-(dodecanoyloxy)tetradecanoylamino]-4-O-phosphoryl-3-O-[(R)-3-(tetradecanoyloxy)tetradecanoyl]-α-D-glucopyranoside] |  | 31 | 30.8 | 0.217 | 1.120 | 1.425 | 30.5 | 0.221 | 1.170 | 1.426 | 28.2 | 0.216 | 1.145 | 1.453 | 34.1 |  | more potent activation profile than SM-MPLA |
